Experimental data: patent US20220290106A1, “Method for Promoting Cell Proliferation, and Method for Preparing Cell Cluster” (Osaka University, priority 2019, published 2022)

Legend:
[1] = test system: MSC cell aggregates; test: Test Example 7: aggregate culture 4 of MSCs (3-DG or GO); type: cell-based; settings: for cell proliferation rate of the MSC cell aggregate: cells counted Day 4 (before treatment) and Day 9, 24 hours treatment, then 10 μM ROCK inhibitor medium; for cell proliferation rate, dependence on concentration: cells counted Day 4 and Day 9, increasing 3-DG/GO concentration; for periphery of the cell aggregate (effect of promoting cell proliferation): treatment time 24 hours from Day 4, then 10 μM ROCK inhibitor medium, Day 9 vs Day 4
Method: Test Example 7 was performed in the same manner as Test Example 6 (aggregate culture 3 of MSCs) except that the culture conditions were changed as follows.
(§1) Medium on Day 0: the above medium containing no ROCK inhibitor
Added reagent: 3-Deoxyglucosone (3-DG) (manufactured by Sigma-Aldrich) • Glyoxal Solution (GO) (manufactured by Sigma-Aldrich) Addition of 3-DG or GO: 3-DG or GO was added after the medium was replaced on the 4th day of culture (Day 4). 3-DG or GO treatment time: 24 hours Medium for replacement:
(§2) Day 2, 4: the above medium containing no ROCK inhibitor
(§3) Day 5, 7, 9: the above medium containing 10 μM ROCK inhibitor
Similarly to Test Example 4, the number of cells was counted on Day 4 (before the treatment) and on Day 9, and the cell proliferation rate was confirmed. As a result, the cell proliferation rate of the MSC cell aggregate was increased by culturing the MSC cell aggregate that had been treated with 3-DG or GO, like the MG treatment.

[2] = test system: iPS cell aggregates (iPSCs, D2 strain); test: Test Example 2: aggregate culture 2 of iPSCs (MG 20 minutes, then ROCK inhibitor medium); type: cell-based; settings: MG 1.25-20 mM, treatment time 20 minutes on Day 4, then medium with 10 μM ROCK inhibitor; Day 10 vs Day 4
Method: Cell: iPSCs (D2 strain, Np17, feeder less) Medium: StemFit (registered trademark) A[…] (manufactured by Takara Bio Inc.) Culture vessel: 96 well V-bottom plate (MS-9096V manufactured by Sumitomo Bakelite Co., Ltd.) Cell density: 200 cells/well Culture condition: 37° C., 5% CO2 Amount of medium: 150 μl/well Culture period: 10 days and (subculture) 5 days (15 days in total) Medium on Day 0: the above medium containing 10 μM ROCK inhibitor Replacement of medium: 75 μl/well (daily) Medium for replacement: Day 4 to 10: the above medium containing 10 μM ROCK inhibitor Day 1 to 3: the above medium containing no ROCK inhibitor Methylglyoxal concentration: 0, 1.25, 2.5, 5, 10, 15, 20 mM Added reagent: Methylglyoxal Solution (product code: […], 1.17 g/mL, 16.25 M, manufactured by Sigma-Aldrich) Addition of MG: MG was added 20 minutes before the medium was replaced on the 4th day of culture (Day 4). MG treatment time: 20 minutes Imaging: video observation with BicStudio (manufactured by NIKON ENGINEERING CO., LTD.) after addition of MG

[3] = test system: MSC cell aggregates; test: Test Example 6: aggregate culture 3 of MSCs (MG 24 hours); type: cell-based; settings: MG 1.25-20 mM, treatment time 24 hours from Day 4, then 10 μM ROCK inhibitor medium; Day 15 vs Day 4
Method: Test Example 6 was performed in the same manner as Test Example 5 (aggregate culture 2 of MSCs) except that the culture conditions were changed as follows. […] Addition of MG: MG was added after the medium was replaced on the 4th day of culture (Day 4). MG treatment time: 24 hours Medium for replacement: Day 2, 4: the above medium containing no ROCK inhibitor Day 5, 7, 9, 11, 13, 15: the above medium containing 10 μM ROCK inhibitor

[4] = test system: MSCs (monolayer culture); test: Monolayer culture of MSCs under the conditions of Test Example 4; type: cell-based; settings: monolayer culture instead of aggregate culture; presence or absence of MG and ROCK inhibitor
Method: Next, MSCs were cultured under the culture conditions of Test Example 4 except that the MSCs were subjected to monolayer culture instead of aggregate culture.

[5] = test system: MSC aggregates; test: Test Example 4: aggregate culture 1 of mesenchymal stem cells, cell proliferation rate; type: cell-based
Method: MSC aggregates were cultured under the following culture conditions. The number of cells was counted on Day 4 (before the addition of MG) and on Day 9. Using the resulting number of cells, the cell proliferation rate was obtained from the following formula.
Medium: Mesenchymal Stem Cell Growth Medium 2 (manufactured by Takara Bio Inc.) Culture vessel: Micro-Space Cell Culture Plate (manufactured by Kuraray Co., Ltd), 24 well plate (manufactured by Corning) Culture condition: 37° C., 5% CO2 incubator Amount of medium: 3 mL/well Seeding density: 1.0×10^5 cell/well Culture period: 9 days
as §1
Replacement of medium: 1.5 mL/well×3, once every two days (Day 5, 7, 9) Medium for replacement:
as §2, §3
Added reagent: Methylglyoxal Solution (product code: M0252, 1.17 g/mL, 16.25 M, manufactured by Sigma-Aldrich) Methylglyoxal concentration: 0, 0.0075, 0.01, 0.0125, 0.015, 0.02 mM Addition of MG: MG was added after the medium was replaced on the 4th day of culture (Day 4). MG treatment time: 24 hours
Cell proliferation rate=(the number of cells on Day 9)/(the number of cells on […])

[6] = test system: iPS cell aggregates (iPSCs, D2 strain); test: Test Example 1: aggregate culture 1 of iPS cells; type: cell-based
Method: iPSC aggregates were cultured under the following culture conditions. FIGS. 1A and 1B show the results. Cell: iPSCs (D2 strain, Np43) Medium: StemFit (registered trademark) A[…] (manufactured by Takara Bio Inc.) Culture vessel: 96 well V-bottom plate (MS-9096V manufactured by Sumitomo Bakelite Co., Ltd.) Cell density: 1316 cells/cm^2 (5×10^2 cells/wells) Culture condition: 37° C., 5% CO2 incubator Amount of medium: 150 μl/well Culture period: 7 clays (Methylglyoxal was added once after the medium was replaced on the 4th day of culture (Day 4).) Medium on Day 0: the above medium containing 10 μM ROCK inhibitor Replacement of medium: 150 μl/well Medium for replacement: the above medium containing no ROCK inhibitor Added reagent: Methylglyoxal Solution (product code: […], 1.17 g/mL, 16.25 M, manufactured by Sigma-Aldrich) Methylglyoxal (MG) concentration: 0, 0.1, 1, 10, 100 mM Imaging: photomicrography on the 4th day of culture (Day 4) (before addition of MG) and the 5th, 6th, and 7th day of culture (Day 5, 6, 7) (after addition of MG) FIGS. 1A and 1B show an example of photomicrographs of iPS cell aggregates before the addition of MG (Day 4) and after the addition of MG (Day 5, 6, 7). FIG. 1B is a partially enlarged view of FIG. 1A

[7] = test system: HepG2 aggregates; test: Test Example 8: aggregate culture of HepG2; type: cell-based, Human; settings: MG 1-20 mM for 24 hours from Day 3, then 10 μM ROCK inhibitor medium
Method: HepG2 aggregates were cultured under the following culture conditions. The number of cells was counted on Day 3 (before the addition of MG) and on Day 4, and the cell proliferation rate was confirmed.
Medium: HepG2 Hepatocellular Carcinoma Expansion Media, Human (Cellular Engineering Technologies)
Culture vessel: 24 well plate (manufactured by Coming) Culture condition: 37° C., 5% CO2 incubator Amount of medium: 0.5 mL/well Culture period: 6 days
as §1
Day 2, 3: the above medium containing no ROCK inhibitor
Day 4, 6: the above medium containing 10 μM ROCK inhibitor
Seeding density: 1.0×10^4 cells/cm^2 Replacement of medium: 0.5 mL/well, once every two days Added reagent: Methylglyoxal Solution (manufactured by Sigma-Aldrich) Methylglyoxal concentration: 0, 1, 5, 10, 15, 20 mM Addition of MG: MG was added after the medium was replaced on the 3rd day of culture (Day 3). MG treatment time: 24 hours

[8] = test system: MSC cell aggregates; test: Test Example 5: aggregate culture 2 of MSCs (MG 20 minutes); type: cell-based; settings: MG 1.25-20 mM, treatment time 20 minutes on Day 4, then 10 μM ROCK inhibitor medium; Day 15 vs Day 4
Method: MSC aggregates were cultured under the following culture conditions. […] Medium: Mesenchymal Stem Cell Growth Medium 2 (manufactured by Takara Bio Inc.) Culture vessel: Micro-Space Cell Culture Plate (manufactured by Kuraray Co., Ltd), 24 well plate (manufactured by Corning) Culture condition: 37° C., 5% CO2 incubator Amount of medium: 3 mL/well Seeding density: 1.0×10^5 cell/well Culture period: 15 days Medium on Day 0: the above medium containing no ROCK inhibitor Replacement of medium: 1.5 mL/well×3, once every two days Medium for replacement: Day 2: the above medium containing no ROCK inhibitor Day 4, 6, 8, 10, 12, 14: the above medium containing 10 μM ROCK inhibitor Added reagent: Methylglyoxal Solution (product code: […], 1.17 g/mL, 16.25 M, manufactured by Sigma-Aldrich) Methylglyoxal concentration: 0, 1.25, 2.5, 5, 10, 15, 20 mM Addition of MG: MG was added 20 minutes before the medium was replaced on the 4th day of culture (Day 4). MG treatment time: 20 minutes Imaging: Day 4 (before addition of MG) and Day 15

[9] = test system: iPS cell aggregates (iPSCs, D2 strain); test: Test Example 3: aggregate culture 3 of iPSCs (MG 24 hours, then ROCK inhibitor medium); type: cell-based; settings: MG 1.25-20 mM, treatment time 24 hours from Day 4, then medium with 10 μM ROCK inhibitor; Day 10 vs Day 4
Method: Test Example 3 was performed in the same manner as Test Example 2 (aggregate culture 2 of iPSCs) except that the culture conditions were changed as follows and the procedures shown in FIG. 3 were used. […] Addition of MG: MG was added after the medium was replaced on the 4th day of culture (Day 4). MG treatment time: 24 hours Medium for replacement: Day 4 to 10: the above medium containing 10 μM ROCK inhibitor Day 1 to 3: the above medium containing no ROCK inhibitor

SMILES | cell proliferation rate of the MSC cell aggregate [1] | cell proliferation rate, dependence on concentration [1] | periphery of the cell aggregate (effect of promoting cell proliferation) [1] | periphery of the cell aggregate (effect of promoting cell proliferation) [2] | periphery of the cell aggregate (effect of promoting cell proliferation) [3] | cell proliferation rate [4] | cell proliferation rate ([5]; MG 0.0075-0.02 mM for 24 hours from Day 4, then 10 μM ROCK inhibitor medium, cell count Day 9, without MG (0 mM) 1.2 times) | cell proliferation rate, medium containing ROCK inhibitor versus medium containing no ROCK inhibitor ([5]; combination of MG and 10 μM ROCK inhibitor compared with MG without ROCK inhibitor) | cell binding properties in the periphery of the cell aggregate, dependence on MG concentration ([6]; MG 0.1, 1, 10, 100 mM) | cell binding properties in the periphery of the cell aggregate ([6]; MG 0.1-100 mM added once on Day 4, compared to control not treated with MG) | periphery (outer circumferential portion) of the cell aggregate, fibrillation state ([6]; MG 0.1-100 mM added once on Day 4, photomicrographs Day 5, 6, 7, compared to control not treated with MG) | periphery of the cell aggregate (effect of promoting cell proliferation) [7] | periphery of the cell aggregate (effect of promoting cell proliferation) [8] | periphery of the cell aggregate (effect of promoting cell proliferation) [9]
O=CC(=O)C[C@H](O)[C@H](O)CO [3-DG, 3-Deoxyglucosone] | increased | tended to be higher with an increase in the 3-DG/GO concentration | expand slightly |  |  |  |  |  |  |  |  |  |  | 
O=CC=O [GO, glyoxal] | increased | tended to be higher with an increase in the 3-DG/GO concentration | expand slightly |  |  |  |  |  |  |  |  |  |  | 
CC(=O)C=O [MG, methylglyoxal] |  |  |  | expand slightly | expand slightly | did not change significantly | nearly doubled | higher | tended to be further reduced with an increase in the MG concentration | reduced | became non-fibrillated (unraveled) | expand slightly | expand slightly | expand slightly
